Laboratory results taken from US20080287398A1, “COLD MENTHOL RECEPTOR-1 ANTAGONISTS” (priority 2007, published 2008).

How the values were obtained:
[1] = biological target: T1, canine TRPM8 (Canis lupus familiaris, UniProt Q1A7N1); assay: In vitro canine TRPM8 functional assay (Ca2+-sensitive dye, FLIPR/FDSS, icilin activation); type: cell-based; settings: HEK293 cells expressing canine TRPM8, icilin activation; for inhibition at 0.5 µM: HEK293, 0.5 μM compound, read-out: % I (0.5 μM); for IC50: eight-point dose-response, read-out: IC50
T1 construct: expressed in transfected cells
Method in brief: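 Icilin challenge (final concentration producing ~80% of maximal response) followed a 5 min compound exposure in canine TRPM8-HEK293 cells dye-loaded with Calcium 3. Intracellular Ca2+ was read on FLIPR/FDSS. EC50 and IC50 values came from nonlinear sigmoidal dose-response fits of basal-subtracted, percent-of-maximum data averaged over quadruplicates.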

[2] = system: rats; assay: Reversal of icilin-induced behaviors (wet-dog shakes) in rats; type: in vivo; settings: rat, 1 h post-icilin
Method: In this paradigm, icilin-induced shaking was counted for 10 minutes followed by administration of a compound of Formula (I). The diminution of shaking behavior is represented as a percent inhibition relative to icilin-induced shakes in the absence of test compound administration, as described by the following formula: % Inhibition=[1−(WDS count following test compound dose/WDS count prior to test compound dose)]×100.

[3] = system: male SD rats; assay: Chronic constriction injury (CCI) model of neuropathic pain, acetone-induced hypersensitivity; type: in vivo; settings: rat; for ED50: po
Method: Through the mesh floor a series of five applications of acetone (0.05 mL/application) was sprayed onto the bottom of the paw using a multidose syringe device. A positive response took the form of an abrupt withdrawal or lifting of the paw. The percentage of positive responses from the five trials represented the individual's overall response that was then averaged over the entire treatment group. […] An ascending dose response relationship (as in Table 10 below) was generated by addition of successive doses of test compound followed by re-assessment of behavior.

[4] = biological target: T2, rat TRPM8 (Rattus norvegicus, UniProt Q8R455); assay: In vitro rat TRPM8 functional assay (Ca2+ dye, FDSS, 100 nM icilin); type: cell-based; settings: HEK293 cells transiently transfected with rat TRPM8, read-out: rTRPM8 IC50
T2 construct: the full-length cDNAs encoding human and rat TRPM8 were subcloned; expressed in transfected cells; host or cells: HEK293 (transient, FuGENE 6, pCI-NEO vector)
Method: For functional expression of TRPM8, the full-length cDNAs encoding human and rat TRPM8 were subcloned into pCl-NEO mammalian expression vectors. The expression constructs were transiently transfected into HEK293 cells according to the FuGENE 6 transfection reagent® (ROCHE) instructions. HEK293 cells were routinely grown as monolayers in Dulbecco's minimum essential medium supplemented with 10% FBS, 1 mM L-glutamine, 100 units/mL penicillin and 100 ug/mL streptomycin. Cells were maintained in 5% CO2 at 37° C. […] Following incubation, plates were inserted into a FDSS instrument, where cells were challenged with a compound of Formula (I) (at varying concentrations) and intracellular Ca^2+ was measured for 5 min prior to the addition of 100 nM icilin. IC50 values for compounds of the present invention were determined from eight-point dose-response studies
Maximal fluorescence intensity (FI) achieved upon addition of icilin was exported from the FDSS and further analyzed using GraphPad Prism 3.02 (Graph Pad Software Inc., CA, U.S.A.). […] The dose response curves from the average of quadruplicate wells for each data point were analyzed by using nonlinear regression of either sigmoidal dose response or sigmoidal dose response (variable slope). Finally, the IC50 values were calculated with the best-fit dose curve determined by Prism.

T1 sequence (Q1A7N1 1-1104): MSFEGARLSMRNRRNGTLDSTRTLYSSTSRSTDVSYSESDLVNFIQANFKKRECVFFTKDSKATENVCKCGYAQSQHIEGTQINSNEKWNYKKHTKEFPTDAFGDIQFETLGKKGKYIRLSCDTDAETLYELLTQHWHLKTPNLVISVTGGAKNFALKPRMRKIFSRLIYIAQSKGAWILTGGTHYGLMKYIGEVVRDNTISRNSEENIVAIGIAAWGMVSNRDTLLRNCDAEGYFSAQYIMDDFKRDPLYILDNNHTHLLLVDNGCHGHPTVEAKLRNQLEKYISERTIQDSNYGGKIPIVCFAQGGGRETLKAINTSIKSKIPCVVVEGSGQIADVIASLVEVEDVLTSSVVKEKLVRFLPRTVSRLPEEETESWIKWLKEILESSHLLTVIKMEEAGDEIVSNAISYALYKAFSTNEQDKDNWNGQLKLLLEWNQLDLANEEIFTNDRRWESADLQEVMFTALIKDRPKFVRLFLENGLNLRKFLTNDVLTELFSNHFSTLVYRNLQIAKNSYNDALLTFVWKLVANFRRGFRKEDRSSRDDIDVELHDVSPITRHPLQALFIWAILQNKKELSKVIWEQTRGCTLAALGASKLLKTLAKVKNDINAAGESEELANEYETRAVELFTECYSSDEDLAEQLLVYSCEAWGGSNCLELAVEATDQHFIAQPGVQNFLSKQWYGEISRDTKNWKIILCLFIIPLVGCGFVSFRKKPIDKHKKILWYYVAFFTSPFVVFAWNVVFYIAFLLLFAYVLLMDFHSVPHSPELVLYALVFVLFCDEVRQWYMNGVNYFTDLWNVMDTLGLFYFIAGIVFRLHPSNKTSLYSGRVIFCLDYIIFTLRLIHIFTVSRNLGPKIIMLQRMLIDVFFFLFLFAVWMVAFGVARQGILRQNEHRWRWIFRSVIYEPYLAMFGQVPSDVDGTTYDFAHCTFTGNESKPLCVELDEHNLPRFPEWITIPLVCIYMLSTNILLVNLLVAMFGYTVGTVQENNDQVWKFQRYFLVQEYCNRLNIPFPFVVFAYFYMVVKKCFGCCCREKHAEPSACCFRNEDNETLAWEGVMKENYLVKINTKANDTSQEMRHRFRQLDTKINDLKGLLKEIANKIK
T2 sequence (Q8R455 whole entry): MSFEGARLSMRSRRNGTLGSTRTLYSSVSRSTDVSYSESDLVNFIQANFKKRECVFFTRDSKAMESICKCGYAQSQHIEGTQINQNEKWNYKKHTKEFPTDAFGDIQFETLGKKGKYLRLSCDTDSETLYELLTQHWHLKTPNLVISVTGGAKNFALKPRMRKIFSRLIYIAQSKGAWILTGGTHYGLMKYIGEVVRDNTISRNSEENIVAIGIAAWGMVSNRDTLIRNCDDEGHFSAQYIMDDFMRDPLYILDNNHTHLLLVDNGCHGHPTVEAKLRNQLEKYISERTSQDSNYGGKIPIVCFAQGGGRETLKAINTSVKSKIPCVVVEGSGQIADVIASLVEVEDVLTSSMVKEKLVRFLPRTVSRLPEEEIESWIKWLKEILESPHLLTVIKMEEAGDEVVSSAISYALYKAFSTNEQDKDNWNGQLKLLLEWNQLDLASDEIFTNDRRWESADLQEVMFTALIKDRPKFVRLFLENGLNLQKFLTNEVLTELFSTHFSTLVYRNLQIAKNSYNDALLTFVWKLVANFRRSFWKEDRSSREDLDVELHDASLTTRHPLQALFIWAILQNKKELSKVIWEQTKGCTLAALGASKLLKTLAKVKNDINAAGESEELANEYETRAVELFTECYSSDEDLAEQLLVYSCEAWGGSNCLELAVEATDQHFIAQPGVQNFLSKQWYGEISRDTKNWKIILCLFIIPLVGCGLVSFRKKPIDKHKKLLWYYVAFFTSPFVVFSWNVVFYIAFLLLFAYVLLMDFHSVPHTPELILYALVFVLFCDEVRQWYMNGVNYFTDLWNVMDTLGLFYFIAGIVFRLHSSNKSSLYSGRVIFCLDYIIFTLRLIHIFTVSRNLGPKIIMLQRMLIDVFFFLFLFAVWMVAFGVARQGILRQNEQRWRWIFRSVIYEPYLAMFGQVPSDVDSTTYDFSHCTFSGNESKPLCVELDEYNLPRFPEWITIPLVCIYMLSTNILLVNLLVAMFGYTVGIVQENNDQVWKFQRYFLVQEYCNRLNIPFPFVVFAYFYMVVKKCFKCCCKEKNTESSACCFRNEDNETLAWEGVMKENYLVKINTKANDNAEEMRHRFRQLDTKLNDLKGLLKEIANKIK

`CC(C)OP(=O)(OC(C)C)[C@@H](Cc1ccc(F)c(F)c1)c1sc2ccccc2c1Br` [Cpd 234, (S)-[1-(3-Bromo-benzo[b]thiophen-2-yl)-2-(3,4-difluoro-phenyl)-ethyl]-phosphonic acid diisopropyl ester] showed an inhibition at 0.5 µM [1] of 104%, an IC50 [1] of 29 nM and an ED50 ([2]; po) of 28.5 mg/kg. The “% Inhibition” value ([2]; 10 mg/kg p.o.) was 24.4%, the “% Inhibition” value ([2]; 30 mg/kg p.o.) was 56.1% and the “% Inhibition” value ([2]; 100 mg/kg p.o.) was 75.1%. The ED50 ([3]; preRx 1 hr) was 14.8 mg/kg, the “% of Allodynic Baseline” value ([3]; 3 mg/kg p.o., preRx 1 hr) was 16.7% and the “% of Allodynic Baseline” value ([3]; 3 mg/kg p.o., preRx 2 hr) was 10.0%. For the same molecule, the “% of Allodynic Baseline” value ([3]; 10 mg/kg p.o., preRx 1 hr) was 51.7%, the “% of Allodynic Baseline” value ([3]; 30 mg/kg p.o., preRx 1 hr) was 59.6% and the “% of Allodynic Baseline” value ([3]; 30 mg/kg p.o., preRx 2 hr) was 56.7%. The “% of Allodynic Baseline” value ([3]; 100 mg/kg p.o., preRx 1 hr) was 83.1%, the “% of Allodynic Baseline” value ([3]; 100 mg/kg p.o., preRx 2 hr) was 93.3% and the IC50 [4] was 0.053 nM.
With `CC(C)OP(=O)(OC(C)C)[C@@H](Cc1ccc(F)c(C(F)(F)F)c1)c1sc2ccccc2c1Br` [Cpd 242, (S)-[1-(3-Bromo-benzo[b]thiophen-2-yl)-2-(4-fluoro-3-trifluoromethyl-phenyl)-ethyl]-phosphonic acid diisopropyl ester] the inhibition at 0.5 µM [1] was 103%, the IC50 [1] was 9 nM and the “% Inhibition” value ([2]; 30 mg/kg p.o.) was 79.9%. The ED50 ([3]; preRx 3 hr) was 18 mg/kg, the “% of Allodynic Baseline” value ([3]; 3 mg/kg p.o., preRx 3 hr) was 15.0% and the “% of Allodynic Baseline” value ([3]; 10 mg/kg p.o., preRx 3 hr) was 30.0%. The “% of Allodynic Baseline” value ([3]; 30 mg/kg i.p., preRx 2 hr) was 63.3%, the “% of Allodynic Baseline” value ([3]; 30 mg/kg p.o., preRx 3 hr) was 66.7% and the “% of Allodynic Baseline” value ([3]; 100 mg/kg p.o., preRx 3 hr) was 86.7%. It also gave an IC50 [4] of 0.056 nM.
